# Reference: article PMC10788917 (Journal of Medicinal Chemistry, 2023)
# Where a chain is given by its changes, count along the chain named.
# Assays:
# Test in all cases: HDAC8 mutant biochemical assay
# [1] = molecular target: T1, HDAC8 Cys102Ser/Cys153Ser (Homo sapiens, UniProt Q9BY41, C102S/C153S); details: read-out: IC50 [μM] @ 100 nM HDAC8: A Cys102Ser/Cys153Ser, 1 h preincubation
# T1 construct: made in house
# T1 sequence (Q9BY41 1-377 C102S/C153S): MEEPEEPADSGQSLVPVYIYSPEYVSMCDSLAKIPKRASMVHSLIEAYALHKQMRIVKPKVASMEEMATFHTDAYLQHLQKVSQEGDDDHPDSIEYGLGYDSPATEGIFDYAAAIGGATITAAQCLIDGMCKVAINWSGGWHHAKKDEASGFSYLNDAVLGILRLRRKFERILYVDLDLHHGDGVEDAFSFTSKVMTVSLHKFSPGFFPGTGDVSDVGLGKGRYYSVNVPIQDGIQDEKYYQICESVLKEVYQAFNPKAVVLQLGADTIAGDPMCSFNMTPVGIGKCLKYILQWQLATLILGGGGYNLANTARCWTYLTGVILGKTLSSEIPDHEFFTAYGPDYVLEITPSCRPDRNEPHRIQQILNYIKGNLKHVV
# Experimental: (§1) HDAC8 mutant variants were generated, produced, and further purified as described previously.[32] Cysteines 28 and 314 were exchanged with serine using the following primer pairs: HD8_C28S_for, […]; HD8_C28S_rev, […]; HD8_C314S_for, […]; HD8_C314S_rev, […].
# (§2) The enzyme activity assay was performed in assay buffer [25 mM Tris-HCl (pH 8.0), 50 mM NaCl, and 0.001% (v/v) Pluronic F-68] in black half-area 96-well microplates (Greiner Bio-One). For the initial screening, 10 nM HDAC8 was preincubated with the indicated compounds at 250 μM for 2 h at 30 °C. […] The reaction was initiated by the addition of 20 μM Boc-Lys(TFA)-AMC (Bachem). After substrate conversion at 30 °C for 15 min for HDAC8 and 1 h for HDAC8 mutants and HDAC4, the reaction was stopped by adding 1.67 μM suberoylanilide trifluoromethylketone (SATFMK). The deacetylated substrate was cleaved with 0.42 mg/mL trypsin to release fluorescent 7-amino-4-methylcoumarin (AMC), which was detected with a microplate reader (PHERAstar FS […]) with fluorescence excitation at 360 nm and emission at 460 nm. IC50 values were calculated by generating dose–response curves in GraphPad Prism 6 and fitting those to a four-parameter logistic model.
# [2] = molecular target: T2, HDAC8 Cys102Ser/Cys153Ser/Cys131Ser (Homo sapiens, UniProt Q9BY41, C102S/C131S/C153S); details: read-out: IC50 [μM] @ 100 nM HDAC8: D Cys102Ser/Cys153Ser/Cys131Ser, 1 h preincubation
# T2 construct: made in house
# T2 sequence (Q9BY41 1-377 C102S/C131S/C153S): T1 sequence (Q9BY41 1-377 C102S/C153S) with C131S
# Experimental: as §1, §2
# [3] = molecular target: T3, HDAC8 Cys102Ser/Cys153Ser/Cys275Ser (Homo sapiens, UniProt Q9BY41, C102S/C153S/C275S); details: read-out: IC50 [μM] @ 100 nM HDAC8: F Cys102Ser/Cys153Ser/Cys275Ser, 1 h preincubation
# T3 construct: made in house
# T3 sequence (Q9BY41 1-377 C102S/C153S/C275S): T1 sequence (Q9BY41 1-377 C102S/C153S) with C275S
# Experimental: as §1, §2
# [4] = molecular target: T4, HDAC8 Cys102Ser/Cys153Ser/Cys287Ser (Homo sapiens, UniProt Q9BY41, C102S/C153S/C287S); details: read-out: IC50 [μM] @ 100 nM HDAC8: G Cys102Ser/Cys153Ser/Cys287Ser, 1 h preincubation
# T4 construct: made in house
# T4 sequence (Q9BY41 1-377 C102S/C153S/C287S): T1 sequence (Q9BY41 1-377 C102S/C153S) with C287S
# Experimental: as §1, §2
Structure (SMILES),IC50 [1],IC50 [2],IC50 [3],IC50 [4]
C[n+]1cncc(Br)c1 [F2+],29 ± 1 µM,25 ± 2 µM,19 ± 4 µM,95 ± 8 µM
C#Cc1c[n+](C)ccn1 [G6+],97 ± 34 µM,55 ± 12 µM,64 ± 16 µM,73 ± 6 µM
C[n+]1cncc(I)c1 [F3+],16 ± 3 µM,15 µM,15 µM,> 130 µM
C[n+]1ccc(I)cc1 [C3+],68 ± 5 µM,36 ± 8 µM,17 ± 1 µM,> 130 µM
C#Cc1cc[n+](C)cc1 [C6+],14 ± 1 µM,3.3 ± 0.3 µM,4.2 ± 0.3 µM,34 ± 2 µM

# Results, then the molecule that gave them:
IC50 [1],IC50 [2],IC50 [3],IC50 [4],Structure (SMILES)
59 ± 4 µM,42 ± 4 µM,24 ± 3 µM,> 130 µM,C[n+]1ccccc1I [A3+]
14 ± 1 µM,8 ± 1 µM,16 ± 2 µM,51 ± 7 µM,C[n+]1cccnc1I [D3+]
23 ± 3 µM,18 ± 4 µM,35 ± 14 µM,> 130 µM,C[n+]1cccnc1Br [D2+]
> 130 µM,93 ± 13 µM,107 ± 10 µM,> 130 µM,C#Cc1nccc[n+]1C [D6+]
60 ± 9 µM,49 ± 6 µM,13 ± 3 µM,> 130 µM,C[n+]1cccnc1Cl [D1+]
